Laboratory results published in paper PMC2217055 (The Journal of General Physiology, 1997).

Experiments:
[1] = molecular target: T1, rat olfactory CNG channel subunit 1 (Rattus norvegicus, UniProt Q00195); test: inside-out patch clamp, cGMP dose-response of current; format: cell-based
T1 sequence (Q00195 1-664): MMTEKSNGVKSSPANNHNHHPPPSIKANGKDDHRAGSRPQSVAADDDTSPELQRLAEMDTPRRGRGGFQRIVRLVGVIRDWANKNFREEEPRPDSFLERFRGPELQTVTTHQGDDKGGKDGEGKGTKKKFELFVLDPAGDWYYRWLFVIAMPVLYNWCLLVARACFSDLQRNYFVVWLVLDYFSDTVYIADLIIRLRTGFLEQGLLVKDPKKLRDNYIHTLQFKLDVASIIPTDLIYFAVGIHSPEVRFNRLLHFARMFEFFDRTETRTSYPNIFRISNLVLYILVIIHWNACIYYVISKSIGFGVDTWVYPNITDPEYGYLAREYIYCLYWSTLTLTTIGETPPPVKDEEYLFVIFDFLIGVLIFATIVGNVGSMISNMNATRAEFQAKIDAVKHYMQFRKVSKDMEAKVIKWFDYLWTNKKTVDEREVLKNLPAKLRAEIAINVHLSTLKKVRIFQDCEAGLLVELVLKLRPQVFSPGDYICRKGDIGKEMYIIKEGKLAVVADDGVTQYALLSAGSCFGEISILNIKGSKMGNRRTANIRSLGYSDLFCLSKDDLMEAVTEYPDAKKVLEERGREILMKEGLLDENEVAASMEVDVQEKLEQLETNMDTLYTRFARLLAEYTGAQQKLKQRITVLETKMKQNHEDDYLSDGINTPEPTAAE

[2] = molecular target: T1, rat olfactory CNG channel subunit 1; test: inside-out patch clamp, oocytes, Michaelis-Menten fit of block; format: cell-based

SMILES | EC50 [1] [µM] | IC50 [2] [µM]
Nc1nc2c(ncn2[C@@H]2O[C@@H]3COP(=O)(O)O[C@H]3[C@H]2O)c(=O)[nH]1 [cGMP] | 2.1 ± 0.12 | –
CCCCNc1ccc(C(=O)OCCN(C)C)cc1 [tetracaine] | – | 170 ± 22
